Laboratory results published in BindingDB's records for doi:10.1016/j.bmcl.2003.07.008 (University of Lille, 2003).

Test: Inhibition of 1-monooleoyl glycerol (MOG) induced beta-hematin formation

Structure (SMILES) | IC50
CC(C)CN(CCCN1CCN(CCCNc2ccnc3cc(Cl)ccc23)CC1)CC(C)C [7-chloro-N-(3-(4-(3-(diisobutylamino)propyl)piperazin-1-yl)propyl)quinolin-4-amine] | 43.4 µM
CC(C)CN(CCCN1CCN(CCCNc2nc3ccccc3[nH]2)CC1)CC(C)C [(1H-Benzoimidazol-2-yl)-{3-[4-(3-diisobutylamino-propyl)-piperazin-1-yl]-propyl}-amine] | 63.6 µM
CC(C)CN(CCCN1CCN(CCCNc2ccnc3ccccc23)CC1)CC(C)C [{3-[4-(3-Diisobutylamino-propyl)-piperazin-1-yl]-propyl}-quinolin-4-yl-amine] | 62.3 µM
CC(C)CN(CCCN1CCN(CCCNc2nc3ccccc3o2)CC1)CC(C)C [Benzooxazol-2-yl-{3-[4-(3-diisobutylamino-propyl)-piperazin-1-yl]-propyl}-amine] | > 200 µM
CC(C)CN(CCCN1CCN(CCCNCc2ccncc2)CC1)CC(C)C [Diisobutyl-[3-(4-{3-[(pyridin-4-ylmethyl)-amino]-propyl}-piperazin-1-yl)-propyl]-amine] | > 200 µM
CC(C)CN(CCCN1CCN(CCCNc2cnccn2)CC1)CC(C)C [{3-[4-(3-Diisobutylamino-propyl)-piperazin-1-yl]-propyl}-pyrazin-2-yl-amine] | > 200 µM
